Measurements published in paper PMC8567988 (Frontiers in Microbiology, 2021).
Values joined by “and” are separate entries in the source; they are usually repeats but may differ in a detail not shown here. Equal values may be shown once. Read-outs that look alike come from different tables or passages of the source.

Columns and labels:
ASFV Ba71V strain [1] = format: cell-based, African swine fever virus
ASFV Ba71V strain [2] = tested on: ASFV Ba71V strain
ASFV Ba71V strain [3] = assay: microbe, parasite or virus in culture; conditions: African swine fever virus, Vero, 72 h, read-out: inhibition of ASFV-induced CPE
ASFV = format: cell-based, African swine fever virus
in vitro = conditions: African green monkey
ASFV Ba71V strain [4] = assay: microbe, parasite or virus in culture; format: cell-based, African swine fever virus
ASFV Ba71V strain [5] = assay: microbe, parasite or virus in culture; format: cell-based, African swine fever virus; remark: listed apart in the source
ASFV Ba71V strain [6] = format: cell-based, African swine fever virus; remark: listed apart in the source
ASFV Ba71V [7] = format: cell-based, African swine fever virus
ASFV Ba71V [8] = format: cell-based, African swine fever virus; remark: listed apart in the source
ASFV Ba71V strain [9] = assay: microbe, parasite or virus in culture; format: cell-based, African swine fever virus; remark: listed apart in the source
ASFV Ba71V [10] = format: cell-based, African swine fever virus; remark: listed apart in the source
ASFV protein (pA104R) = format: cell-based, African swine fever virus
ASFV Ba71V [11] = format: cell-based, African swine fever virus; remark: listed apart in the source
ASFV Arm/07 isolate [12] = format: cell-based, African swine fever virus
ASFV Arm/07 isolate [13] = format: cell-based, African swine fever virus; remark: listed apart in the source
ASFV Arm/07 isolate [14] = format: cell-based, African swine fever virus; remark: listed apart in the source
ASFV Arm/07 isolate [15] = format: cell-based, African swine fever virus; remark: listed apart in the source
[16] = tested on: autophagic vacuoles in Vero cells; format: cell-based, African green monkey
[17] = in vivo; cited from earlier work

In the case of O=c1cc(-c2ccccc2)oc2c1ccc1ccccc12 [7,8-benzoflavone], the “ASFV yield after virucidal pre-incubation” value (ASFV Ba71V strain [1]) is reported as 4.64±0.09 log TCID50/ml, the “cell monolayer damage upon treatment” value (ASFV Ba71V strain [2]) is reported as “no apparent cell monolayer damage” and the inhibition at 10 µg/mL (ASFV Ba71V strain [3]) is reported as greater than 40%.
With Oc1c2ccccc2c2c3c(cccc13)N=N2 [SP600125, reference compound] the “effect of the inhibitor alone on ASFV infection” value (ASFV) was “only a slight effect on ASFV infection”.
For COc1ccc(-c2coc3cc(O)ccc3c2=O)cc1O [calycosin], the “cell monolayer damage upon treatment” value (ASFV Ba71V strain [2]) was “no apparent cell monolayer damage” and the inhibition at 20 µg/mL (ASFV Ba71V strain [3]) was greater than 40%.
With COc1ccc(-c2cc(=O)c3c(O)cc(O[C@@H]4O[C@H](CO[C@@H]5O[C@@H](C)[C@H](O)[C@@H](O)[C@H]5O)[C@@H](O)[C@H](O)[C@H]4O)cc3o2)cc1O [diosmin] the “cell monolayer damage upon treatment” value (ASFV Ba71V strain [2]) was “no apparent cell monolayer damage”, the CC50 (in vitro) was 33.1 µg/mL and 54.4 µM and the inhibition at 10 µg/mL (ASFV Ba71V strain [3]) was greater than 40%.
For COc1ccc(-c2cc(=O)c3c(OC)cc(OC)c(OC)c3o2)cc1OC [isosinensetin], the “cell monolayer damage upon treatment” value (ASFV Ba71V strain [2]) was “no apparent cell monolayer damage”, the CC50 (in vitro) was 24.8 µg/mL and 66.6 µM and the viability (in vitro) was 58.5%. It also gave an inhibition at 20 µg/mL (ASFV Ba71V strain [3]) greater than 40%.
In the case of O=c1c(O)c(-c2ccc(O)cc2)oc2cc(O)cc(O)c12 [kaempferol, 3,5,7-trihydroxy-2-(4-hydroxyphenyl)-4H-chromen-4-one], the viral yield (ASFV Ba71V strain [4]) is reported as 3.98±0.19 log TCID50/ml, the inhibition at 20 µg/mL (ASFV Ba71V strain [4]; African swine fever virus, Vero, 24 h, read-out: inhibition of ASFV infection) is reported as greater than 92% and the virucidal effect (ASFV Ba71V strain [1]) is reported as “no virucidal effects”. For the same compound, the “antiviral effect, log decrease of ASFV titer” value (ASFV Ba71V strain [5]) was 1.26 log, the IC50 (ASFV Ba71V strain [5]; African swine fever virus, Vero) was 2.2 µg/mL and 7.7 µM and the “inhibition, log decrease of ASFV titer” value (ASFV Ba71V strain [6]) was 1.21 log. The “viral titers as the interval between infection and removal increased” value (ASFV Ba71V [7]) was “gradual declines in viral titers”, the “inhibitory effect on ASFV infection” value (ASFV Ba71V [8]) was “no significant inhibitory effect” and the “suppression of viral infection” value (ASFV Ba71V [8]) was “more than 90%”. For the same compound, the viral titer reduction (ASFV Ba71V [8]) was 1.25 log and 1.1 log, the “inhibition of the ASFV yield” value (ASFV Ba71V strain [9]) was “more than 60%” and the “viral titer, attachment experiment” value (ASFV Ba71V strain [9]) was 3.97±0.25 log TCID50/ml. The “virus titer, internalization experiment” value (ASFV Ba71V strain [9]) was 3.63±0.11 log TCID50/ml, the inhibition at 20 µg/mL (ASFV Ba71V strain [9]; African swine fever virus, Vero, read-out: inhibition of the ASFV yield, attachment experiment) was roughly 60% and the “plaque numbers (virus spread)” value (ASFV Ba71V [10]) was “significant reduction in plaque numbers in a dose-dependent manner”. For the same compound, the “viral protein synthesis (late protein pA104R)” value (ASFV protein (pA104R)) was “viral protein synthesis was reduced”, the “decrease of viral DNA in viral factories vs untreated control” value (ASFV Ba71V [11]) was 31% and the anti-ASFV activity (ASFV Arm/07 isolate [12]) was “Anti-ASFV activity was observed”. The viral titer (ASFV Arm/07 isolate [12]) was 3.4±0.14 log HADU50/ml, the “inhibition, log decrease of titer” value (ASFV Arm/07 isolate [13]) was “about 2 log” and the “effect on ASFV entry” value (ASFV Arm/07 isolate [14]) was “could hinder the ASFV attachment and internalization processes”. For the same compound, the “decrease in the amount of viral DNA in ASFV factories” value (ASFV Arm/07 isolate [15]) was 39%, the “formation of autophagic vacuoles” value [16] was “induced the formation of autophagic vacuoles” and the “antiviral activity in the presence of autophagy inhibitor SP600125” value (ASFV) was “partially abrogated”. The “cell monolayer damage upon treatment” value (ASFV Ba71V strain [2]) was “no apparent cell monolayer damage”, the “cytotoxicity for porcine cells” value (porcine macrophages) was “not cytotoxic” and the human plasma concentration [17] was “around 58 nm”. It also gave an inhibition at 20 µg/mL (ASFV Ba71V strain [3]) greater than 40%.
For COc1c2occc2c(OC)c2c(=O)cc(C)oc12 [khellin], the “cell monolayer damage upon treatment” value (ASFV Ba71V strain [2]) was “no apparent cell monolayer damage” and the inhibition at 10 µg/mL (ASFV Ba71V strain [3]) was greater than 40%.
In the case of Oc1ccc2c(c1)OC[C@H]1c3cc4c(cc3O[C@@H]21)OCO4 [maackiain], the “cell monolayer damage upon treatment” value (ASFV Ba71V strain [2]) is reported as “no apparent cell monolayer damage” and the inhibition at 20 µg/mL (ASFV Ba71V strain [3]) is reported as greater than 40%.
In the case of COc1cc(O)c2c(c1)O[C@H](c1ccc(O)cc1)CC2=O [sakuranetin], the “cell monolayer damage upon treatment” value (ASFV Ba71V strain [2]) is reported as “no apparent cell monolayer damage” and the inhibition at 20 µg/mL (ASFV Ba71V strain [3]) is reported as greater than 40%.
For COc1ccc(-c2cc(=O)c3c(OC)c(OC)c(OC)cc3o2)cc1OC [sinensetin], the “cell monolayer damage upon treatment” value (ASFV Ba71V strain [2]) was “no apparent cell monolayer damage”, the CC50 (in vitro) was 150 µg/mL and 404 µM and the inhibition at 20 µg/mL (ASFV Ba71V strain [3]) was greater than 40%.
